The values that follow come from US6878722B2, “Substituted cycloalkyl P1′ hepatitis C virus inhibitors” (Bristol-Myers Squibb Company, priority 2002, dated 2005).

The target in assay [1] is T1, HCV NS3/4A protease complex (BMS strain, genotype 1a) (Hepatitis C virus genotype 1a, UniProt P27958, C1454S).
T1 construct: DNA encoding the recombinant HCV NS3/4A protease complex (amino acids 1027 to 1711) for these strains; inferred from the pET21b vector and Ni-NTA purification; made in house; host or cells: Escherichia coli BL21 (DE3), pET21b
The assay can be described thus: Recombinant HCV NS3/4A protease complex FRET peptide assay, BMS strain. The class given is biochemical. Particulars: IC50 range, NS3/4A BMS Strain. The text has this: The purpose of this in vitro assay was to measure the inhibition of HCV NS3 protease complexes, derived from the BMS, H77C or J416S strains, as described below, by compounds of the present invention.
Serum from an HCV-infected patient was obtained from Dr. T. Wright, San Francisco Hospital. An engineered full-length cDNA (compliment deoxyribonucleic acid) template of the HCV genome (BMS strain) was constructed from DNA fragments obtained by reverse transcription-PCR (RT-PCR) of serum RNA (ribonucleic acid) and using primers selected on the basis of homology between other genotype 1a strains. […] The infectious clones, H77C (1a genotype) and J4L6S (1b genotype) were obtained from R. Purcell (NIH) and the sequences are published in Genbank (AAB67036, see Yanagi,M., Purcell,R. H., Emerson,S. U. and Bukh,J. Proc. Natl. Acad. Sci. U.S.A. 94(16),8738-8743 (1997); AF054247, see Yanagi,M., St Claire,M., Shapiro,M., Emerson,S. U., Purcell,R. H. and Bukh,J, Virology 244 (1), 161-172. (1998)).
The BMS, H77C and J4L6S strains were used for production of recombinant NS3/4A protease complexes. DNA encoding the recombinant HCV NS3/4A protease complex (amino acids 1027 to 1711) for these strains were manipulated as described by P. Gallinari et al. (see Gallinari P, Paolini C, Brennan D, Nardi C, Steinkuhler C, De Francesco R. Biochemistry. 38(17):5620-32, (1999)). Briefly, a three-lysine solubilizing tail was added at the 3′-end of the NS4A coding region. The cysteine in the P1 position of the NS4A-NS4B cleavage site (amino acid 1711) was changed to a glycine to avoid the proteolytic cleavage of the lysine tag. Furthermore, a cysteine to serine mutation was introduced by PCR at amino acid position 1454 to prevent the autolytic cleavage in the NS3 helicase domain. The variant DNA fragment was cloned in the pET21b bacterial expression vector (Novagen) and the NS3/4A complex was expressed in Escherichia. coli strain BL21 (DE3) (Invitrogen) following the protocol described by P. Gallinari et al. (see Gallinari P, Brennan D, Nardi C, Brunetti M, Tomei L, Steinkuhler C, De Francesco R., J. Virol. 72(8):6758-69 (1998)) with modifications. Briefly, NS3/4A expression was induced with 0.5 mM Isopropyl β-D-1-thiogalactopyranoside (IPTG) for 22 hr at 20° C. […] The cells were resuspended in lysis buffer (10 mL/g) consisting of 25 mM N-(2-Hydroxyethyl)Piperazine-N′-(2-Ethane Sulfonic acid) (HEPES), pH 7.5, 20% glycerol, 500 mM Sodium Chloride (NaCl), 0.5% Triton-X100, 1 ug/ml lysozyme, 5 mM Magnesium Chloride (MgCl2), 1 ug/ml DnaseI, 5 mM β-Mercaptoethanol (βME), Protease inhibitor—Ethylenediamine Tetraacetic acid (EDTA) free (Roche), homogenized and incubated for 20 mins at 4° C. The homogenate was sonicated and clarified by ultra-centrifugation at 235000 g for 1 hr at 4° C. Imidazole was added to the supernatant to a final concentration of 15 mM and the pH adjusted to 8.0. The crude protein extract was loaded on a Nickel-Nitrilotriacetic acid (Ni-NTA) column pre-equilibrated with buffer B (25 mM HEPES, pH 8.0, 20% glycerol, 500 mM NaCl, 0.5% Triton-X100, 15 mM imidazole, 5 mM βME). The sample was loaded at a flow rate of 1 mL/min. The column was washed with 15 column volumes of buffer C (same as buffer B except with 0.2% Triton-X100). The protein was eluted with 5 column volumes of buffer D (same as buffer C except with 200 mM Imidazole).
NS3/4A protease complex-containing fractions were pooled and loaded on a desalting column Superdex-S200 pre-equilibrated with buffer D (25 mM HEPES, pH7.5, 20% glycerol, 300 mM NaCl, 0.2% Triton-X100, 10 mM βME).

For assay [2], the system named is HCV replicon in Huh7 cells. The assay can be described thus: HCV replicon cell-based assay (FRET). Particulars: Hepatitis C virus, Huh-7; HCV replicon; read-out: EC50 range. An excerpt: An HCV replicon whole cell system was established as described by Lohmann V, Korner F, Koch J, Herian U, Theilmann L, Bartenschlager R., Science 285(5424):110-3 (1999). This system enabled us to evaluate the effects of our HCV Protease compounds on HCV RNA replication. Briefly, using the HCV strain 1B sequence described in the Lohmann paper (Assession number: AJ238799), an HCV cDNA was generated encoding the 5′ internal ribosome entry site (IRES), the neomycin resistance gene, the EMCV (encephalomyocarditis viurs)-IRES and the HCV nonstructural proteins, NS3-NS5B, and 3′ non-translated region (NTR). In vitro transcripts of the cDNA were transfected into the human hepatoma cell line, Huh7. […] Resulting cell lines were characterized for positive and negative strand RNA production and protein production over time.
Huh7 cells, constitutively expressing the HCV replicon, were grown in Dulbecco's Modified Eagle Media (DMEM) containing 10% Fetal calf serum (FCS) and 1 mg/ml G418 (Gibco-BRL). Cells were seeded the night before (1.5×10^4 cells/well) in 96-well tissue-culture sterile plates. Compound and no compound controls were prepared in DMEM containing 4% FCS, 1:100 Penicillin/Streptomysin, 1:100 L-glutamine and 5% DMSO in the dilution plate (0.5% DMSO final concentration in the assay). Compound/DMSO mixes were added to the cells and incubated for 4 days at 37° C. After 4 days, plates were rinsed thoroughly with Phosphate-Buffered Saline (PBS) (3 times 150 μl). The cells were lysed with 25 μl of a lysis assay reagent containing the FRET peptide (RET S1, as described for the in vitro enzyme assay). The lysis assay reagent was made from 5× cell Luciferase cell culture lysis reagent(Promega #E153A) diluted to 1× with distilled water, NaCl added to 150 mM final, the FRET peptide diluted to 10 μM final from a 2 mM stock in 100% DMSO. The plate was then placed into the Cytofluor 4000 instrument which had been set to 340 nm excitation/490 emission, automatic mode for 21 cycles and the plate read in a kinetic mode. EC50 determinations were carried out as described for the IC50 determinations.

T1 sequence (P27958 1658-1714, looked up, stated change not applied): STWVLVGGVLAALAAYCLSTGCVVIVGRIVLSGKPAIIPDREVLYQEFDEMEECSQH
T1 sequence (P27958 1027-1657, looked up, stated change not applied): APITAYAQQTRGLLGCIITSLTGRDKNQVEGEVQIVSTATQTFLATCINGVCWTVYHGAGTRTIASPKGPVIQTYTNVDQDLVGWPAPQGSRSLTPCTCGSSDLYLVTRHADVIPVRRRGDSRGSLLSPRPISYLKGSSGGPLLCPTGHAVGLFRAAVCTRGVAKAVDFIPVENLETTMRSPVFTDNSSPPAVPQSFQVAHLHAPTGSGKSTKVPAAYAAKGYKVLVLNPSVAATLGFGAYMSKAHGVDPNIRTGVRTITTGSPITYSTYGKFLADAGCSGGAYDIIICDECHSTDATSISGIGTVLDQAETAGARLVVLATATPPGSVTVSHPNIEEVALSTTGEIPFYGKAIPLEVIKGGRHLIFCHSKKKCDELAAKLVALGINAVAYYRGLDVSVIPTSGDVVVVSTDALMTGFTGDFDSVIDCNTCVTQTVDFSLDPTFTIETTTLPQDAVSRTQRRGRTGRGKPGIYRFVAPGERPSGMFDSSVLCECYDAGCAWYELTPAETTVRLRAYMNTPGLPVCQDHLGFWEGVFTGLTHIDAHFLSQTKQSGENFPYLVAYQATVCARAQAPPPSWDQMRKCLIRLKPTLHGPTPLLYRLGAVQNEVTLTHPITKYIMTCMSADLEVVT

For `C=CC1C[C@]1(NC(=O)[C@@H]1C[C@@H](Oc2cc(-c3ccccc3)nc3cc(OC)ccc23)CN1C(=O)[C@@H](NC(=O)OC(C)(C)C)C(C)(C)C)C(=O)NS(=O)(=O)C1(C(=O)NCCC)CC1` (stereo in doubt) [Compound 9, (1-{4-(7-Methoxy-2-phenylquinolin-4-yloxy)-2-[1-(1-propylcarbamoyl-cyclopropanesulfonylaminocarbonyl)-2-vinylcyclopropylcarbamoyl]pyrrolidine-1-carbonyl}-2,2-dimethyl-propyl)carbamic acid tert-butyl ester], the IC50 in assay [1] is less than 50 nM. Further, the EC50 in assay [2] was less than 50 nM.

Take `C=CC1C[C@]1(NC(=O)[C@@H]1C[C@@H](Oc2cc(-c3ccccc3)nc3cc(OC)ccc23)CN1C(=O)[C@@H](NC(=O)OC1CCCC1)C(C)(C)C)C(=O)NS(=O)(=O)C1(C)CC1` (stereo in doubt) [Compound 12, (1-{4-(7-Methoxy-2-phenyl-quinolin-4-yloxy)-2-[1-(1-methylcyclopropanesulfonyl-aminocarbonyl)-2-vinyl-cyclopropylcarbamoyl]-pyrrolidine-1-carbonyl}-2,2-dimethylpropyl)carbamic acid cyclopentyl ester]: the IC50 in assay [1] is less than 50 nM. Also, the concentration giving a half-maximal response (EC50) in assay [2] is less than 50 nM.

With `C=CC1C[C@]1(NC(=O)[C@@H]1C[C@@H](Oc2cc(-c3ccccc3)nc3cc(OC)ccc23)CN1C(=O)[C@@H](NC(=O)CC1CC1)C(C)(C)C)C(=O)NS(=O)(=O)C1(C)CC1` (stereo in doubt) [Compound 13, 1-[2-(2-Cyclopropyl-acetylamino)-3,3-dimethyl-butyryl]-4-(7-methoxy-2-phenylquinolin-4-yloxy)-pyrrolidine-2-carboxylic acid [1-(1-methylcyclopropanesulfonylaminocarbonyl)-2-vinylcyclopropyl]amide], in assay [1], the IC50 is less than 50 nM. In addition, the EC50 in assay [2] was less than 50 nM.

With `C=CCC1(S(=O)(=O)NC(=O)[C@@]2(NC(=O)[C@@H]3C[C@@H](Oc4cc(-c5ccccc5)nc5cc(OC)ccc45)CN3C(=O)[C@@H](NC(=O)OC(C)(C)C)C(C)(C)C)CC2C=C)CC1` (some centres unmarked) [Compound 2, {1-[2-[1-(1-Allylcyclopropanesul-fonylaminocarbonyl)-2-vinylcyclopropylcarbamoyl]-4-(7-methoxy-2-phenylquinolin-4-yloxy)-pyrrolidine-1-carbonyl]-2,2-dimethylpropyl}carbamic acid tert-butyl ester], the IC50 in assay [1] was less than 50 nM. Moreover, the EC50 in assay [2] is less than 50 nM.

For `C=CC1C[C@]1(NC(=O)[C@@H]1C[C@@H](Oc2cc(-c3ccccc3)nc3cc(OC)ccc23)CN1C(=O)[C@@H](NC(=O)OC(C)(C)C)C(C)(C)C)C(=O)NS(=O)(=O)C1(COC)CC1` (some centres unmarked) [Compound 7, {1-[2-[1-(1-Methoxymethylcyclopropanesulfonylaminocarbonyl)-2-vinylcyclopropylcarbamoyl]-4-(7-methoxy-2-phenyl-quinolin-4--yloxy)pyrrolidine-1-carbonyl]-2,2-dimeth-ylpropyl}-carbamic acid tert-butyl ester], in assay [1], the 50% inhibitory concentration (IC50) is less than 50 nM. Moreover, the EC50 in assay [2] is less than 50 nM.

As to `C=CC1C[C@]1(NC(=O)[C@@H]1C[C@@H](Oc2cc(-c3ccccc3)nc3cc(OC)ccc23)CN1C(=O)[C@@H](NC(=O)OC(C)(C)C)C(C)(C)C)C(=O)NS(=O)(=O)C1(CC2CC2)CC1` (some centres unmarked) [Compound 8, {1-[2-[1-(1-Cyclopropylmethyl-cyclopropanesulfonylaminocarbonyl)-2-vinyl-cyclopropylcarbamoyl]-4-(7-methoxy-2-phenyl-quinolin-4-yloxy)-pyrrolidine-1-carbonyl]-2,2-dime-thylpropyl}-carbamic acid tert-butyl ester], the half-maximal inhibitory concentration (IC50) in assay [1] was less than 50 nM. In assay [2], the EC50 was less than 50 nM.

Consider `C=CC1C[C@]1(NC(=O)[C@@H]1C[C@@H](Oc2cc(-c3ccccc3)nc3cc(OC)ccc23)CN1C(=O)[C@@H](NC(=O)OC(C)(C)C)C(C)(C)C)C(=O)NS(=O)(=O)C1(C(=O)Nc2c(C)noc2C)CC1` (some centres unmarked) [Compound 10, {1-[2-{1-[1-(3,5-Dimethylisoxazol-4-ylcarbamoyl)cyclopropanesul-fonylaminocarbonyl]-2-vinylcyclopropylcarbamoyl}-4-(7-methoxy-2-phenylquinolin-4-yloxy)pyrrolidine-1-carbon-yl]-2,2-dimethylpropyl}carbamicacid tert-butyl ester], for which the IC50 in assay [1] was less than 50 nM. The EC50 in assay [2] is less than 50 nM.

On to `C=CC1C[C@]1(NC(=O)[C@@H]1C[C@@H](Oc2cc(-c3ccccc3)nc3cc(OC)ccc23)CN1C(=O)[C@@H](NC(=O)OC(C)(C)C)C(C)(C)C)C(=O)NS(=O)(=O)C1(Br)CC1` (some centres unmarked) [Compound 11, {1-[2-[1-(1-Bromocyclopropanesulfonylaminocarbonyl)-2-vinylcy-clopropylcarbamoyl]-4-(7-methoxy-2-phenylquinolin-4-yloxy)pyrrolidine-1-carbonyl]-2,2-dimethylpropyl}-carbamic acid tert-butyl ester], for which the IC50 in assay [1] is less than 50 nM. Further, the EC50 in assay [2] is less than 50 nM.

In the case of `C=C[C@@H]1C[C@]1(NC(=O)[C@@H]1C[C@@H](Oc2cc(-c3ccccc3)nc3cc(OC)ccc23)CN1C(=O)[C@@H](NC(=O)OC(C)(C)C)C(C)(C)C)C(=O)NS(=O)(=O)C1([Si](C)(C)C)CC1` [Compound 27], the IC50 in assay [1] is less than 50 nM. Further, the EC50 in assay [2] was less than 50 nM.

Regarding `C=C[C@@H]1C[C@]1(NC(=O)[C@@H]1C[C@@H](Oc2cc(-c3ccccc3)nc3cc(OC)ccc23)CN1C(=O)[C@@H](NC(=O)OC(C)(C)C)C(C)(C)C)C(=O)NS(=O)(=O)C1(CC)CC1` [Compound 28], in assay [1], the IC50 is less than 50 nM. Besides, in assay [2], the EC50 is less than 50 nM.
